Like-named read-outs stand apart in the source and are kept apart here.
How the values were obtained:
Assay type in all cases: in vivo
Horseweed = test: Test F postemergence plant response; details: scale 0 to 100
[1] = test system: winter barley (Hordeum vulgare); test: Test E pre-/postemergence plant response; details: scale 0 to 100, read-out: Plant response rating, Barley, Winter; for plant injury at 16 g/ha: 16 g ai/ha; for plant injury at 31 g/ha: 31 g ai/ha; for plant injury at 62 g/ha: 62 g ai/ha; for plant injury at 125 g/ha: 125 g ai/ha
Outline: (§1)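 Pre-emergence: seeds sown in silt loam soil and sprayed with test chemicals in a non-phytotoxic solvent/surfactant mix. Post-emergence: plants at 2–18 cm (1- to 4-leaf stage) in peat/vermiculite medium treated with the same formulation. Visual rating versus controls after 7–21 days, 0 (no effect) to 100 (complete control).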

[2] = test system: lambsquarters (Chenopodium album); test: Test E pre-/postemergence plant response; details: scale 0 to 100, read-out: Plant response rating, Lambsquarters; for pest or weed control at 16 g/ha: 16 g ai/ha; for pest or weed control at 31 g/ha: 31 g ai/ha; for pest or weed control at 62 g/ha: 62 g ai/ha; for pest or weed control at 125 g/ha: 125 g ai/ha
Outline: as §1

[3] = test system: galium (catchweed bedstraw, Galium aparine); test: Test E pre-/postemergence plant response; details: scale 0 to 100, read-out: Plant response rating, Galium; for pest or weed control at 16 g/ha: 16 g ai/ha; for pest or weed control at 31 g/ha: 31 g ai/ha; for pest or weed control at 62 g/ha: 62 g ai/ha; for pest or weed control at 125 g/ha: 125 g ai/ha
Outline: as §1

[4] = test system: bluegrass (annual bluegrass, Poa annua); test: Test E pre-/postemergence plant response; details: scale 0 to 100, read-out: Plant response rating, Bluegrass; for pest or weed control at 16 g/ha: 16 g ai/ha; for pest or weed control at 31 g/ha: 31 g ai/ha; for pest or weed control at 62 g/ha: 62 g ai/ha; for pest or weed control at 125 g/ha: 125 g ai/ha
Outline: as §1

[5] = test system: deadnettle (henbit deadnettle, Lamium amplexicaule); test: Test E pre-/postemergence plant response; details: pre-emergence, Preemergence, scale 0 to 100, read-out: Plant response rating, Deadnettle
Outline: as §1

[6] = test system: downy bromegrass (Bromus tectorum); test: Test E pre-/postemergence plant response; details: scale 0 to 100, read-out: Plant response rating, Bromegrass, Downy; for pest or weed control at 16 g/ha: 16 g ai/ha; for pest or weed control at 31 g/ha: 31 g ai/ha; for pest or weed control at 62 g/ha: 62 g ai/ha; for pest or weed control at 125 g/ha: 125 g ai/ha
Outline: as §1

[7] = test system: blackgrass (Alopecurus myosuroides); test: Test E pre-/postemergence plant response; details: scale 0 to 100, read-out: Plant response rating, Blackgrass; for pest or weed control at 16 g/ha: 16 g ai/ha; for pest or weed control at 31 g/ha: 31 g ai/ha; for pest or weed control at 62 g/ha: 62 g ai/ha; for pest or weed control at 125 g/ha: 125 g ai/ha
Outline: as §1

[8] = test system: chamomile (scentless chamomile, Matricaria inodora); test: Test E pre-/postemergence plant response; details: Tripleurospermum inodorum, scale 0 to 100, read-out: Plant response rating, Chamomile; for pest or weed control at 16 g/ha: 16 g ai/ha; for pest or weed control at 31 g/ha: 31 g ai/ha; for pest or weed control at 62 g/ha: 62 g ai/ha; for pest or weed control at 125 g/ha: 125 g ai/ha
Outline: as §1

## Fc1cccc(Oc2ncc(Cl)cn2)c1-c1cc(C(F)F)no1 [Compound 144, 5-chloro-2-[2-[3-(difluoromethyl)-5-isoxazolyl]-3-fluorophenoxy]pyrimidine]
Horseweed; 16 g ai/ha Postemergence
  Plant response rating, Horseweed: 0
Horseweed; 31 g ai/ha Postemergence
  Plant response rating, Horseweed: 0
Horseweed; 62 g ai/ha Postemergence
  Plant response rating, Horseweed: 10
Horseweed; 125 g ai/ha Postemergence
  Plant response rating, Horseweed: 25
[1]; post-emergence, Postemergence
  plant injury at 16 g/ha: 30%
  plant injury at 31 g/ha: 20%
  plant injury at 62 g/ha: 35%
  plant injury at 125 g/ha: 45%
[1]; pre-emergence, Preemergence
  plant injury at 16 g/ha: 30%
  plant injury at 31 g/ha: 35%
  plant injury at 62 g/ha: 55%
  plant injury at 125 g/ha: 55%
[2]; post-emergence, Postemergence
  pest or weed control at 16 g/ha: 80%
  pest or weed control at 31 g/ha: 95%
  pest or weed control at 62 g/ha: 98%
  pest or weed control at 125 g/ha: 100%
[2]; pre-emergence, Preemergence
  pest or weed control at 16 g/ha: 100%
  pest or weed control at 31 g/ha: 100%
  pest or weed control at 62 g/ha: 100%
  pest or weed control at 125 g/ha: 100%
[3]; post-emergence, Postemergence
  pest or weed control at 16 g/ha: 80%
  pest or weed control at 31 g/ha: 95%
  pest or weed control at 62 g/ha: 100%
  pest or weed control at 125 g/ha: 100%
[3]; pre-emergence, Preemergence
  pest or weed control at 16 g/ha: 20%
  pest or weed control at 31 g/ha: 70%
  pest or weed control at 62 g/ha: 100%
  pest or weed control at 125 g/ha: 100%
[4]; post-emergence, Postemergence
  pest or weed control at 16 g/ha: 25%
  pest or weed control at 31 g/ha: 45%
  pest or weed control at 62 g/ha: 55%
  pest or weed control at 125 g/ha: 65%
[4]; pre-emergence, Preemergence
  pest or weed control at 16 g/ha: 10%
  pest or weed control at 31 g/ha: 15%
  pest or weed control at 62 g/ha: 40%
  pest or weed control at 125 g/ha: 85%
[5]; 16 g ai/ha
  pest or weed control at 16 g/ha: 90%
[5]; 31 g ai/ha
  pest or weed control at 31 g/ha: 100%
[5]; 62 g ai/ha
  pest or weed control at 62 g/ha: 100%
[5]; 125 g ai/ha
  pest or weed control at 125 g/ha: 100%
[6]; post-emergence, Postemergence
  pest or weed control at 16 g/ha: 25%
  pest or weed control at 31 g/ha: 35%
  pest or weed control at 62 g/ha: 40%
  pest or weed control at 125 g/ha: 75%
[6]; pre-emergence, Preemergence
  pest or weed control at 16 g/ha: 10%
  pest or weed control at 31 g/ha: 10%
  pest or weed control at 62 g/ha: 35%
  pest or weed control at 125 g/ha: 55%
[7]; post-emergence, Postemergence
  pest or weed control at 16 g/ha: 25%
  pest or weed control at 31 g/ha: 50%
  pest or weed control at 62 g/ha: 60%
  pest or weed control at 125 g/ha: 85%
[7]; pre-emergence, Preemergence
  pest or weed control at 16 g/ha: 15%
  pest or weed control at 31 g/ha: 75%
  pest or weed control at 62 g/ha: 98%
  pest or weed control at 125 g/ha: 100%
[8]; post-emergence, Postemergence
  pest or weed control at 16 g/ha: 80%
  pest or weed control at 31 g/ha: 75%
  pest or weed control at 62 g/ha: 80%
  pest or weed control at 125 g/ha: 95%
[8]; pre-emergence, Preemergence
  pest or weed control at 16 g/ha: 15%
  pest or weed control at 31 g/ha: 20%
  pest or weed control at 62 g/ha: 100%
  pest or weed control at 125 g/ha: 100%
